Test results as given in the supplement of paper PMC10307832.

Experiments:
Experiment in all cases: relative viability (nuclei count vs DMSO), 5 days (fraction); higher = more cells survive
MK-8033 + Navitoclax = compound: Cn1cc(-c2cnc3ccc4ccc(CS(=O)(=O)NCc5ccccn5)cc4c(=O)c3c2)cn1 [MK-8033] + CC1(C)CCC(c2ccc(Cl)cc2)=C(CN2CCN(c3ccc(C(=O)NS(=O)(=O)c4ccc(N[C@H](CCN5CCOCC5)CSc5ccccc5)c(S(=O)(=O)C(F)(F)F)c4)cc3)CC2)C1 [Navitoclax] (partner 0.5 µM)
In short: (§1)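 Medians of duplicate plates are given as relative viability. That measure is the nuclei count in treated wells divided by the count in vehicle wells. Counts were taken on 4× images of lung cancer cell lines in 1536-well plates, 5 days after pin-tool dosing the day after seeding with one drug alone or a fixed anchor-drug dose plus five library-drug doses (not always all listed) in √10 steps.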

Irinotecan + Tozasertib = compound: CCc1c2c(nc3ccc(OC(=O)N4CCC(N5CCCCC5)CC4)cc13)-c1cc3c(c(=O)n1C2)COC(=O)[C@]3(O)CC [Irinotecan] + Cc1cc(Nc2cc(N3CCN(C)CC3)nc(Sc3ccc(NC(=O)C4CC4)cc3)n2)n[nH]1 [Tozasertib] (partner 0.1 µM)
In short: as §1

Irinotecan + Bortezomib = compound: CCc1c2c(nc3ccc(OC(=O)N4CCC(N5CCCCC5)CC4)cc13)-c1cc3c(c(=O)n1C2)COC(=O)[C@]3(O)CC [Irinotecan] + CC(C)C[C@H](NC(=O)[C@H](Cc1ccccc1)NC(=O)c1cnccn1)B(O)O [Bortezomib] (partner 0.002 µM)
In short: as §1

MK-8033 + Pemetrexed = compound: Cn1cc(-c2cnc3ccc4ccc(CS(=O)(=O)NCc5ccccn5)cc4c(=O)c3c2)cn1 [MK-8033] + Nc1nc2[nH]cc(CCc3ccc(C(=O)N[C@@H](CCC(=O)O)C(=O)O)cc3)c2c(=O)[nH]1 [Pemetrexed] (partner 0.2 µM)
In short: as §1

Cell Line | relative viability (MK-8033 + Navitoclax; first compound 0.02 µM) | relative viability (MK-8033 + Navitoclax; first compound 0.06325 µM) | relative viability (MK-8033 + Navitoclax; first compound 0.2 µM) | relative viability (MK-8033 + Navitoclax; first compound 0.6325 µM) | relative viability (MK-8033 + Navitoclax; first compound 2 µM) | relative viability (Irinotecan + Tozasertib; first compound 0.6325 µM) | relative viability (Irinotecan + Tozasertib; first compound 2 µM) | relative viability (Irinotecan + Tozasertib; first compound 6.325 µM) | relative viability (Irinotecan + Tozasertib; first compound 20 µM) | relative viability (Irinotecan + Bortezomib; first compound 0.6325 µM) | relative viability (Irinotecan + Bortezomib; first compound 2 µM) | relative viability (Irinotecan + Bortezomib; first compound 6.325 µM) | relative viability (Irinotecan + Bortezomib; first compound 20 µM) | relative viability (MK-8033 + Pemetrexed; first compound 0.02 µM) | relative viability (MK-8033 + Pemetrexed; first compound 0.06325 µM) | relative viability (MK-8033 + Pemetrexed; first compound 0.2 µM) | relative viability (MK-8033 + Pemetrexed; first compound 0.6325 µM) | relative viability (MK-8033 + Pemetrexed; first compound 2 µM)
NCI-H2347 | 0.844 | 0.741 | 0.779 | 0.827 | 0.737 | 0.441 | 0.502 | 0.546 | 0.441 | 0.512 | 0.918 | 0.493 | 0.555 | 0.462 | 0.423 | 0.434 | 0.356 | 0.415
201T | 1.26 | 1.19 | 1.21 | 1.16 | 1.2 |  | 0.682 | 0.402 | 0.318 |  | 1.12 | 1.06 | 0.942 | 0.306 | 0.348 | 0.301 | 0.291 | 0.312
NCI-H1650 | 1.21 | 1.13 | 1.11 | 1.11 | 1.18 |  | 0.423 | 0.366 | 0.211 | 0.188 | 0.198 | 0.244 | 0.133 | 0.429 | 0.332 | 0.457 | 0.39 | 0.336
NCI-H1734 | 0.811 | 0.818 | 0.763 | 0.878 | 0.837 |  | 0.279 | 0.198 | 0.33 | 0.797 | 0.674 | 0.207 | 0.174 | 0.423 | 0.403 | 0.393 | 0.398 | 0.431
SW 1573 | 0.721 |  | 0.991 | 0.884 | 0.95 | 0.152 | 0.311 | 0.183 | 0.155 | 0.803 | 0.745 | 0.189 | 0.162 | 0.866 | 0.807 | 0.766 | 0.834 | 0.791
NCI-H1993 | 0.866 | 0.781 | 0.859 | 0.83 | 0.708 | 0.582 | 0.71 | 0.639 | 0.644 | 1.1 | 0.968 | 0.613 | 0.399 | 0.537 | 0.58 | 0.498 | 0.575 | 0.46
NCI-H1755 | 0.829 | 0.988 | 0.983 | 1.01 | 0.966 | 0.469 | 0.463 | 0.316 | 0.405 | 0.9 | 0.935 | 0.355 | 0.327 | 0.481 | 0.394 | 0.383 | 0.336 | 0.375
